US20020193564A1, “Oligomeric chaperone proteins” (priority 1999, published 2002)

What was measured:
E. coli SV6 groEL673 = test: In vivo complementation of ts groEL673 at 43° C.; format: cell-based; settings: plasmids pJC, relative to growth at 30° C.
Description: In vivo Complementation Experiments.
Complementation experiments were performed by transforming electro-competent SV2 or SV6 cells with the pJC series of expression vectors and plating an aliquot of the transformation reactions directly at 43° C. The percentage of viable cells relative to the growth at 30° C. was determined. A representative number of clones which grew at 43° C. were incubated in absence of any selective markers at permissive temperature. After prolonged growth the loss of the pJC plasmids and the ts phenotype were verified. Each experiment was performed in duplicate. Plasmids carrying no groE genes or encoding the GroE proteins were used as negative or positive controls, respectively.

[1] = test system: Lorist6 (bacteriophage λ origin vector); test: Effect of over-expression on Lorist6 replication; format: cell-based, E. coli; settings: over-expression from pJC
Description: Effect on Lorist6 Replication of Over-Expressing of MC7.
The effect of over-expressing Gp31 proteins from pJC vector series on the replication of the bacteriophage λ origin vector, Lorist6 (Gibson, T. J., Rosenthal, A. & Waterston, R. H. (1987) Gene 53, 283-286) in TG1 (Gibson, T. J. (1984) Ph.D. thesis, University of Cambridge, U.K) or SV1 (Georgopoulos, C., Hendrix, R. W., Casjens, S. R. & Kaiser, A. D. (1973) J. Mol. Biol. 76, 45-60) cells was determined essentially as described (Chatellier, J., Hill, F., Lund, P. & Fersht, A. R. (1998) Proc. Natl. Acad. Sci. U.S.A. 95, 9861-9866).

[2] = test system: mutant Huntingdon exon 1-expressing PC12 and SH-SY5Y cells; test: Inclusion formation and cell death, mutant Huntingdon exon 1; format: cell-based; settings: overexpression
Source text: These phenomena have been studied by transiently transfecting part of Huntingdon exon 1 in COS-7, PC12, and SH-SY5Y cells. Inclusion formation was not seen with constructs expressing 23 glutamines but was repeat length and time dependent for mutant constructs with 43-74 repeats. HSP70, HSP40, the 20S proteasome and ubiquitin colocalized with inclusions. […] Thus, inclusion formation may be enhanced in polyglutamine diseases, if the pathological process results in proteasome inhibition or a heat-shock response. […] To our knowledge, this is the first report of an HSP increasing aggregation of an abnormally folded protein in mammalian cells and expands the current understanding of the roles of HDJ-2yHSDJ in protein folding (See Wyttenbach, A. et al. (2000) Proc. Natl. Acad. Sci. USA 97, 2899-2903).
We have tested MC72 in the same system.

**Q.** Which “Relative colony forming ability, SV6 groEL673” value (E. coli SV6 groEL673) does the source give for “GroEL(1-548): key molecular chaperone in Escherichia coli, 14 subunits of 57.5 kD in two seven membered rings” here?
**A.** The value was 1.

**Q.** And the “replication of the Lorist6 plasmid” value [1]?
**A.** The value was “inhibit the replication”.

**Q.** And the cell death [2]?
**A.** The cell death was “no effect”.

**Q.** What about the inclusion formation [2] of the same substance?
**A.** Its inclusion formation is “no effect”.
